Biological target: T1, collagenase (Homo sapiens, UniProt P03956)
T1 construct: endogenous in cells; host or cells: culture of human synovial fibroblasts (conditioned medium)
T1 sequence (P03956 100-469): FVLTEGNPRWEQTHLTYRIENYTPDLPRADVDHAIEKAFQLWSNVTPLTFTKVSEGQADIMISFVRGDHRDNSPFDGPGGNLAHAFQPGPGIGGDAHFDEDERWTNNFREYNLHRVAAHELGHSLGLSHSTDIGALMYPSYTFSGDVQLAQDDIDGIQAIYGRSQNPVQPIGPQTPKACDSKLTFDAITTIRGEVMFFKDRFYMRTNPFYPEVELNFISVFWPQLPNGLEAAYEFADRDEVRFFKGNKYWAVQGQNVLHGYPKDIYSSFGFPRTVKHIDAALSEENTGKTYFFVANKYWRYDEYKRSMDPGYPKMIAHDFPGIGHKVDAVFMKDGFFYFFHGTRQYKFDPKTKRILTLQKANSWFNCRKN
Assay: in vitro collagenase inhibiting activity (Test A)
Type: biochemical
Settings: collagenase from culture of human synovial fibroblasts, trypsin-activated; substrate 14C-acetylated collagen type I from rat tail tendons; microtitre plate assay
Procedure: USA (1976), 73 945, following activation of the pro-collagenase in the conditioned medium by treatment with trypsin. Collagenase activity was measured using ^14 C-acetylated collagen type I from rat tail tendons as the substrate and employing the microtitre plate assay method of Johnson-Wint, B, Anal. Biochem. (1980), 104, 175. The IC50 is that concentration of a test compound in the enzyme digestion which reduces substrate cleavage and solubilization to 50% of that achieved by the enzyme alone.

IC50 | SMILES
1 nM | CNC(=O)[C@@H](NC(=O)[C@H](CC1CCC1)C(CN1C(=O)N(C)C(C)(C)C1=O)C(=O)NO)C(C)(C)C (single isomer, unassigned) [Example 5, N2-[3-cyclobutyl-2(R)-[1(R or S)-(hydroxycarbamoyl)-2-(3,4,4-trimethyl-2,5-dioxo-1-imidazolidinyl)ethyl]propionyl]-N1,3-dimethyl-L-valinamide]
5 nM | CNC(=O)[C@@H](NC(=O)C(CC(=O)NO)CC1CCCC1)C(C)(C)C (single isomer, unassigned) [Example 3, N2-[3-cyclopentyl-2(R or S)-[(hydroxycarbamoyl)methyl]propionyl]-N1-3-dimethyl-L-valinamide]
1 nM | CNC(=O)[C@@H](NC(=O)[C@H](CC1CC1)C(CN1C(=O)N(C)C(C)(C)C1=O)C(=O)NO)C(C)(C)C (single isomer, unassigned) [Example 4, N2-[3-cyclopropyl-2(R)-[1(R or S)-(hydroxycarbamoyl)-2-(3,4,4-trimethyl-2,5-dioxo-1-imidazolidinyl)ethyl]propionyl]-N1,3-dimethyl-L-valinamide]

The remaining lines, values behind:

SMILES | IC50
CNC(=O)[C@@H](NC(=O)C(CC(=O)NO)CC1CCC1)C(C)(C)C (single isomer, unassigned) [Example 1, N2-[3-cyclobutyl-2(R or S)-[(hydroxycarbamoyl)-methyl]propionyl]-N1,3-dimethyl-L-valinamide] | 2 nM
CNC(=O)[C@@H](NC(=O)C(CC(=O)NO)CC1CC1)C(C)(C)C (single isomer, unassigned) [Example 2, N2-[3-cyclopropyl-2(R or S)-[(hydroxycarbamoyl)-methyl]propionyl]-N1,3-dimethyl-L-valinamide] | 7 nM

— patent publication US6066662A, “Hydroxylamine derivatives and their use as metalloproteinase inhibiting agents” (Hoffmann-La Roche Inc., priority 1994, dated 2000)
